Reference: patent US7115599B2, “Sulfonamide-substituted pyrazolopyridine compounds” (Bayer Aktiengesellschaft, priority 2000, dated 2006)

System: rabbit aorta rings
Assay: Vasorelaxant effect in vitro (phenylephrine-contracted rabbit aortic rings)
Settings: Oryctolagus cuniculus; concentration reducing height of phenylephrine-induced contraction of rabbit aorta rings by 50%; 0.1% DMSO, 37° C.
Protocol: Rabbits are stunned by a blow to the back of the neck and are exsanguinated. The aorta is removed, freed of adherent tissue, divided into rings 1.5 mm wide and put singly under tension in 5 ml organ baths containing carbogen-gassed Krebs-Henseleit solution at 37° C. with the following composition (mM): NaCl: 119; KCl: 4.8; CaCl2×2H2O: 1; MgSO4×7H2O: 1.4; KH2PO4: 1.2; NaHCO3: 25; glucose: 10. The force of contraction is detected with Statham UC2 cells, amplified and digitized via A/D converters (DAS-1802 HC, Keithley Instruments Munich) and recorded in parallel on chart recorders. A contraction is generated by adding phenylephrine to the bath cumulatively in increasing concentration. After several control cycles, the substance to be investigated is investigated in each further run in increasing dosage in each case, and the height of the contraction is compared with the height of the contraction reached in the last preceding run. The concentration necessary to reduce the height of the control value by 50% (IC50) is calculated from this. The standard application volume is 5 μl, and the DMSO content in the bath solution corresponds to 0.1%.

SMILES	IC50 [nM]
Nc1nc(-c2nn(Cc3ccccc3F)c3ncccc23)nc(Cl)c1N1CCCS1(=O)=O [Example 1, 6-Chloro-5-(1,1-dioxido-2-isothiazolidinyl)-2-[1-(2-fluorobenzyl)-1H-pyrazolo[3,4-b]pyridin-3-yl]-4-pyrimidinediamine]	290
Nc1nc(-c2nn(Cc3ccccc3F)c3ncccc23)nc(N)c1N1CCCS1(=O)=O [Example 3, 5-(1,1-Dioxido-2-isothiazolidinyl)-2-[1-(2-fluorobenzyl)-1H-pyrazolo[3,4-b]pyridin-3-yl]-4,6-pyrimidineamine]	350
